Laboratory results taken from patent publication US11795460B2, “Compositions and methods for TTR gene editing and treating ATTR amyloidosis” (Intellia Therapeutics, Inc., priority 2017, dated 2023).

How the values were obtained:
TTR [1] = assay: TTR editing in primary human hepatocytes transfected with Spy Cas9 mRNA and dgRNAs (Table 9); format: cell-based; details: dgRNA co-transfected with Spy Cas9 mRNA (SEQ ID NO:2)
Procedure, shortened: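 PHH sequentially lipofected with Spy Cas9 mRNA (100 ng), then crRNA plus tracrRNA (25 nM each) dual-guide lipoplex. Cells harvested 24, 48 or 72 h post-transfection; TTR target amplicons sequenced on Illumina MiSeq, editing given as percent reads with indels or substitutions over total reads.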

TTR [2] = assay: TTR editing in HEK293_Cas9 cells transfected with dgRNAs (Table 4); format: cell-based, human; details: HEK293_Cas9 cells (constitutively express Spy Cas9) transfected with dgRNAs
Procedure, shortened: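 Spy Cas9-expressing HEK293 cells were transfected by lipofection with crRNA (25 nM) plus trRNA (25 nM) and harvested at 24, 48 or 72 h. The target site was PCR-amplified and sequenced on MiSeq. Percent editing is reads with indels or substitutions over total reads.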

TTR [3] = assay: TTR editing in HUH7 cells transfected with Spy Cas9 mRNA and dgRNAs (Table 5); format: cell-based, human; details: HUH7 cells co-transfected with Spy Cas9 mRNA (SEQ ID NO:2) and dgRNAs
Procedure, shortened: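 HUH7 cells were transfected sequentially with Spy Cas9 mRNA (100 ng) then crRNA and tracer RNA (25 nM each) by lipofection. Genomic DNA was collected 24, 48 or 72 h later. Target site was PCR-amplified and NGS-sequenced, and percent editing was taken as reads with indels or substitutions over total reads.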

TTR [4] = assay: TTR editing in HepG2 cells transfected with Spy Cas9 mRNA and dgRNAs (Table 6); format: cell-based, human; details: HepG2 cells co-transfected with Spy Cas9 mRNA (SEQ ID NO:2) and dgRNAs
Procedure, shortened: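 HepG2 cells were transfected sequentially by lipofection with Spy Cas9 mRNA (100 ng), then crRNA plus tracer RNA (25 nM each), and harvested at 24, 48 or 72 h. Editing was measured by amplicon NGS at the TTR target site as the fraction of reads with indels or substitutions.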

Row | Sequence | Avg % Deletion (TTR [1]) | Avg % Edit (TTR [1]) | Avg % Insert (TTR [1]) | Avg % Deletion (TTR [2]) | Avg % Edit (TTR [2]) | Avg % Insert (TTR [2]) | Avg % Deletion (TTR [3]) | Avg % Edit (TTR [3]) | Avg % Insert (TTR [3]) | Avg % Deletion (TTR [4]) | Avg % Edit (TTR [4]) | Avg % Insert (TTR [4])
1 | CUUCUCUACACCCAGGGCAC (tested as dual guide RNA, chemistry not given here) [CR003342] | 1.50% | 22.10% | 20.60% | 35.38% | 36.57% | 1.19% | 44.66% | 45.14% | 1.23% | 0.28% | 11.06% | 10.78%
2 | GAAAGGCUGCUGAUGACACC (tested as dual guide RNA, chemistry not given here) [CR003352] | 5.07% | 16.80% | 11.73% | 22.99% | 27.90% | 4.91% | 32.79% | 39.68% | 7.62% | 4.77% | 44.28% | 39.51%
3 | GACGACAGCCGUGGUGGAAU (tested as dual guide RNA, chemistry not given here) [CR003388] | 1.17% | 12.97% | 11.87% | 17.82% | 19.23% | 1.41% | 56.45% | 59.48% | 3.88% | 1.56% | 9.33% | 7.76%
4 | GCAACUUACCCAGAGGCAAA (tested as dual guide RNA, chemistry not given here) [CR003356] | 2.67% | 7.27% | 4.70% | 22.19% | 32.21% | 10.03% | 31.31% | 49.63% | 18.98% | 3.72% | 9.39% | 5.67%
5 | GCAGGGCGGCAAUGGUGUAG (tested as dual guide RNA, chemistry not given here) [CR003380] | 0.47% | 2.93% | 2.47% | 44.00% | 47.64% | 3.64% | 29.29% | 31.76% | 3.29% | 2.30% | 17.08% | 14.78%
6 | GCAUGGGCUCACAACUGAGG (tested as dual guide RNA, chemistry not given here) [CR003362] | 0.47% | 6.60% | 6.17% | 8.41% | 9.90% | 1.48% | 23.76% | 26.43% | 3.43% | 0.94% | 17.44% | 16.50%
7 | GCCGUGGUGGAAUAGGAGUA (tested as dual guide RNA, chemistry not given here) [CR003387] | 0.03% | 7.87% | 7.80% | 16.92% | 24.68% | 7.75% | 25.55% | 25.64% | 0.23% | 0.12% | 1.39% | 1.27%
8 | GCGGCAAUGGUGUAGCGGCG (tested as dual guide RNA, chemistry not given here) [CR003377] | 0.57% | 17.53% | 16.97% | 21.99% | 24.70% | 2.71% | 29.89% | 34.93% | 5.59% | 1.02% | 16.30% | 15.29%
9 | GCUGCAUGGGCUCACAACUG (tested as dual guide RNA, chemistry not given here) [CR003361] | 0.87% | 3.53% | 2.73% | 25.78% | 34.45% | 8.66% | 22.44% | 28.68% | 6.84% | 2.58% | 14.05% | 11.47%
10 | GGAGUAGGGGCUCAGCAGGG (tested as dual guide RNA, chemistry not given here) [CR003382] | 0.00% | 0.97% | 0.97% | 25.49% | 29.95% | 4.46% | 34.47% | 34.47% | 0.14% | 0.15% | 1.73% | 1.58%
11 | GGCUGUCGUCACCAAUCCCA (tested as dual guide RNA, chemistry not given here) [CR003391] | 0.30% | 15.47% | 15.20% | 44.19% | 44.81% | 0.61% | 59.70% | 61.31% | 2.10% | 0.50% | 48.78% | 48.28%
12 | GGGAUUGGUGACGACAGCCG (tested as dual guide RNA, chemistry not given here) [CR003390] | 1.60% | 20.23% | 18.73% | 23.71% | 28.02% | 4.31% | 16.49% | 18.97% | 3.31% | 2.44% | 24.88% | 22.44%
13 | GUGAGUCUGGAGAGCUGCAU (tested as dual guide RNA, chemistry not given here) [CR003360] | 0.90% | 14.90% | 14.13% | 19.98% | 22.68% | 2.70% | 55.13% | 58.62% | 5.01% | 2.38% | 41.31% | 38.94%
14 | UACUCACCUCUGCAUGCUCA (tested as dual guide RNA, chemistry not given here) [CR003372] | 0.63% | 1.77% | 1.13% | 11.99% | 15.24% | 3.25% | 17.25% | 21.52% | 4.89% | 2.42% | 14.57% | 12.14%
15 | UCUAGAACUUUGACCAUCAG (tested as dual guide RNA, chemistry not given here) [CR003345] | 18.45% | 50.65% | 32.30% | 16.01% | 35.02% | 19.00% | 32.18% | 72.43% | 41.33% | 4.45% | 10.58% | 6.12%
16 | UGGACUGGUAUUUGUGUCUG (tested as dual guide RNA, chemistry not given here) [CR003340] | 23.17% | 24.97% | 1.83% | 14.50% | 42.38% | 27.88% | 14.23% | 46.93% | 33.33% | 31.65% | 37.76% | 6.12%
17 | UGUAGAAGGGAUAUACAAAG (tested as dual guide RNA, chemistry not given here) [CR003365] | 6.67% | 26.90% | 20.23% | 24.61% | 36.43% | 11.83% | 43.82% | 60.68% | 17.77% | 11.11% | 46.88% | 35.77%
